# Data reported in patent US20110071403A1, “FUNCTIONAL NEAR-INFRARED FLUORESCENCE LYMPHATIC MAPPING FOR DIAGNOSING, ACCESSING, MONITORING AND DIRECTING THERAPY OF LYMPHATIC DISORDERS” (BOARD OF REGENTS OF THE UNIVERSITY OF TEXAS SYSTEM, priority 2009, published 2011).
# Where a SMILES comes first, the peptide text is derived from it. Bridges are numbered along the chain shown (N, C = ends). Where no end group is shown, it is not given here. The star is where a group is joined. IRDye800CW = CC1(C)C(/C=C/C2=C(Oc3ccc(S(=O)(=O)O)cc3)C(=C/C=C3/N(CCCCS(=O)(=O)O)c4ccc(S(=O)(=O)O)cc4C3(C)C)/CCC2)=[N+](CCCCCC(=O)*)c2ccc(S(=O)(=O)[O-])cc21; IRDye800 = IRDye800 fluorophore
# Columns and labels:
# [1] = cited from earlier work
# [2] = tested on: lymphatics of arms and legs; test: first human study: NIR fluorescence lymphatic imaging with intradermal ICG, apparent lymph velocity and propulsion period in control and lymphedema subjects; conditions: intradermal ICG up to 400 μg; vitals 2 h, follow-up calls 24 and 48 h
# [3] = taken up by the liver and secreted into the bile; cited from earlier work
# [4] = tested on: lymphatics of arms and legs; test: second human study: NIR fluorescence lymphatic imaging with intradermal ICG pre- and post-MLD, apparent lymph velocity and propulsion period; conditions: intradermal ICG up to 400 μg; vitals 2 h, follow-up calls 24 and 48 h
# Text: Twelve normal volunteers and 10 subjects clinically diagnosed with Grade I or II unilateral LE participated and provided informed consent. […] The control subjects consisted of 2 males and 10 females, aged 22-59 years. The LE subjects were all female, aged 18-68 years with half experiencing lower extremity LE and the other half upper extremity LE. The injection sites were cleaned with a surgical scrub, followed by alcohol. Immediately after intradermal injection of imaging contrast agent using a 27 gauge needle, NIR fluorescence images were simultaneously acquired from both the LE and contralateral limbs of LE subjects. For control subjects, bilateral arms were imaged simultaneously in 6 subjects, and bilateral legs were imaged in the other 6 subjects. MLD was performed 30 to 60 minutes after the start of imaging followed by another 30 to 60 minutes of imaging. Vital signs were monitored for 2 hours after fluorescent agent administration and follow-up phone calls to assess subjects' condition were made 24 and 48 hours later. […]
# The location and movement of lymphatic fluid containing ICG was imaged simultaneously in both limbs using two custom-built fluorescence imaging systems.
# [5] = optical characterization of NIR imaging agents (spectra, extinction coefficient, quantum yield, lifetime, relative brightness); assay type: physicochemical; conditions: for Emission maximum / Excitation maximum: 1 μM solution; for Extinction Coefficient × 10^4: at 785 nm; for Lifetime: frequency domain method, 785/830 (ex/em), ICG as standard
# Protocol: Fluorescence quantum yield was determined by the comparative method of Williams et al. 1983 (Williams, Winfield and Miller. Analyst 109, 1067, 1983) using the quantum yield of ICG (in water) at 785/830 nm (24) as a standard. Lifetime measurements were obtained using the frequency domain-method using ICG as a standard. The IC50 of IRDye800-ABD was determined using a competitive binding assay modified from Dennis et al. 2002 (ibid). Briefly, MAXISORP fluorescent plates (Nunc, Rochester, N.Y.) were coated with mouse serum albumin (Sigma St Louis, Mo.) and incubated overnight at 4 degrees. Plates were washed three times with PBS+0.05% Tween20 (Sigma St. Louis, Mo.) to remove unbound albumin and were then blocked with TBS in casein (Pierce Rockford, Ill.) for 1 hour at 25 degrees. Equal volumes of unlabeled and labeled peptide were combined in centrifuge tubes for five different concentrations (0.05-10 nM) of unlabeled ABD peptide. The resulting peptide solution was then plated on the albumin coated plate, covered, and incubated for 1-2 hours at 37 degrees. The plate was washed with PBS+0.05% Tween20 three times to remove unbound peptide and fluorescence was measured using the ODYSSEY fluorescent plate reader (LI-COR, Lincoln, Nebr.). The average and standard deviation of four IC-50 values were determined.
# In addition, Table 1 lists the relative brightness of each compound relative to ICG which was computed by taking the ratio of ((extinction coefficient)×(quantum yield))/((extinction coefficient of ICG)×(quantum yield of ICG)). […] Spectra for ICG and the IRDye800 conjugates were determined.
# [6] = tested on: lymphatic vessels and nodes; test: in vivo lymphatic imaging, dose escalation after intradermal injection at base of tail; parameters: species or system C57BL/6 mice
# Protocol: (§1) Animal studies were conducted using shaved 6-7 week old female, C57BL/6 mice (Harlan, Charles River). […] Each mouse was injected intradermally at the base of the tail with 20 μL of 500 uM ICG or 20 μL of 100 μM dye for IRDye800, IRDy800-MSA and IRDye800-ABD in order to assess their performance in vivo. The injections were all made by the same investigator and the site was covered with sterile tape immediately prior to imaging to prevent camera saturation.
# Animals were illuminated by a laser diode (100 mA, 80 mW for 785 nm, Sanyo; Richmond, Ind.) with the light source expanded to a circular area approximately 8 cm in diameter. Fluorescence emission was collected using an Electron Multiplying Charge Coupled Device (EMCCD) camera with a holographic notch-plus band-rejection filter (785-nm center wavelength for ICG) and a bandpass filter (830-nm center wavelength for ICG) placed prior to the lens to reject back-scattered and reflected excitation light. Fluorescence images were acquired with an integration time of 200 ms. For registration purposes, “white light” images were taken by removing the filters and acquiring images over 500 ms integration time. Up to 750 fluorescent images and 3 white light images were acquired immediately after injection on the left and right side of each animal. Statistical analyses of differences in fluorescent intensity were assessed by student t-test in which α=0.05. […] Images were processed using V++ software (Digital Optics; Auckland, New Zealand), and data was analyzed to determine in vivo fluorescent intensities in select regions of interest (ROI) using IMAGEJ (NIH, Bethesda, Md.) and MATLAB (The Mathworks). Statistical analysis was conducted using the student t-test with α=0.05.
# In viva lymphatic imaging studies utilizing an escalating dose of IC was done.
# [7] = tested on: inguinal lymph node; test: lymphatic clearance study, fluorescence intensity in inguinal lymph node over time
# Protocol: as §1
# Animals were illuminated by a laser diode (100 mA, 80 mW for 785 nm, Sanyo; Richmond, Ind.) with the light source expanded to a circular area approximately 8 cm in diameter. Fluorescence emission was collected using an Electron Multiplying Charge Coupled Device (EMCCD) camera with a holographic notch-plus band-rejection filter (785-nm center wavelength for ICG) and a bandpass filter (830-nm center wavelength for ICG) placed prior to the lens to reject back-scattered and reflected excitation light. Fluorescence images were acquired with an integration time of 200 ms. […] Statistical analyses of differences in fluorescent intensity were assessed by student t-test in which α=0.05. […] Images were processed using V++ software (Digital Optics; Auckland, New Zealand), and data was analyzed to determine in vivo fluorescent intensities in select regions of interest (ROI) using IMAGEJ (NIH, Bethesda, Md.) and MATLAB (The Mathworks). […]
# [8] = tested on: lymphangiogenesis (α9β1); test: Oxazolone-induced skin inflammation mouse model, NIR fluorescence imaging; assay type: in vivo; conditions: 24 hours after intravenous injection, right inflamed vs left untreated side
# Protocol: The NIR imaging was conducted with intradermal administration of ICG (as shown above in human studies) to image both the right and left side lymphatics. […] Increased vessel density, leakiness, and dilated vessels on the inflamed side as compared to the untreated side of the animal as evident from the lymphatic imaging as compared to the left, untreated side.
# The right side of the animal which has greater lymphatic density as indicated by ICG imaging (as shown in FIG. 21) is also associated with increased IRDye800-[…] (SEQ ID NO: 2) fluorescence presumably owing to the stimulation of LECS in the process of lymphangiogenesis to produce α9β1 integrin.
# This targeting approach can be used to detect the process of lymphangiogenesis in animal models in, for example, drug discovery programs focusing on cessation of tumor lymphangiogenesis (such is associated with cancer metastasis), or as a diagnostic to detect the lymphangiogenesis that occurs in metastatic cancer and other tymphovascular disorders. Lymphangiogenesis and the accompanying activation of LECS are known to be stimulated by vascular endothelial growth factor-C (VEGF-C) or hepatic growth factor (HGF). […] The induced lymphangiogenesis is clearly visualized by the increase in fluorescence 24 hours through […] after the administration of imaging conjugate, IRDye800-[…] […]
# [9] = molecular target: T1, integrin α9β1 on LECs (Homo sapiens, UniProt P05556+Q13797); test: fluorescence microscopy of LECs stimulated by VEGF-C; assay type: cell-based
# T1 construct: LECS stimulated by VEGF-C to express α9β1 on the extracellular membrane; endogenous in cells; host or cells: lymphatic endothelial cells (LECs) incubated with VEGF-C
# T1 sequence (Q13797 30-1035): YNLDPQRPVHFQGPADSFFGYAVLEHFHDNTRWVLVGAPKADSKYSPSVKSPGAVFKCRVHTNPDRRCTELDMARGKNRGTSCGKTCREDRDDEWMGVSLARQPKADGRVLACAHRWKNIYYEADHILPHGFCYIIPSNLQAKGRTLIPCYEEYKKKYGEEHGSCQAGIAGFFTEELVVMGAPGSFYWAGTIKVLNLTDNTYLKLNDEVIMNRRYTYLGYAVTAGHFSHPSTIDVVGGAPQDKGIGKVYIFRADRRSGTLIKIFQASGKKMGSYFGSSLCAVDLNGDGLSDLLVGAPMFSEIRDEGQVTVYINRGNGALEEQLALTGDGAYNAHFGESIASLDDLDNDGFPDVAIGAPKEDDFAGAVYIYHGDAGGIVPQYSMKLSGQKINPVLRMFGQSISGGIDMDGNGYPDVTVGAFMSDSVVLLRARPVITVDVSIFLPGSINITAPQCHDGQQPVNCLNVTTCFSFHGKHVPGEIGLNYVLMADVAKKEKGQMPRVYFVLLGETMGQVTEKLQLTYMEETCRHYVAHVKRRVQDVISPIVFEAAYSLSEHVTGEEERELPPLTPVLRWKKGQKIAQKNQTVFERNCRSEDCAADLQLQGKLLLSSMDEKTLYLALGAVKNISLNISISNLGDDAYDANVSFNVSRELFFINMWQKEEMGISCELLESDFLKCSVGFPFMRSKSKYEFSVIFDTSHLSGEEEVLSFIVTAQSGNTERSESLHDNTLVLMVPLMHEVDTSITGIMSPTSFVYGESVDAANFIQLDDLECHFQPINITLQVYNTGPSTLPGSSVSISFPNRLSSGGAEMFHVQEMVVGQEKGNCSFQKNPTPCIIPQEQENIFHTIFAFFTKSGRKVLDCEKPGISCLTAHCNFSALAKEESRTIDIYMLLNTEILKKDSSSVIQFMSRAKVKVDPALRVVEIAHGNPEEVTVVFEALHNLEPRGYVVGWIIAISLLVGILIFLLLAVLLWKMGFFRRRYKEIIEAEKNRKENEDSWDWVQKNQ
# T1 sequence (P05556 21-798): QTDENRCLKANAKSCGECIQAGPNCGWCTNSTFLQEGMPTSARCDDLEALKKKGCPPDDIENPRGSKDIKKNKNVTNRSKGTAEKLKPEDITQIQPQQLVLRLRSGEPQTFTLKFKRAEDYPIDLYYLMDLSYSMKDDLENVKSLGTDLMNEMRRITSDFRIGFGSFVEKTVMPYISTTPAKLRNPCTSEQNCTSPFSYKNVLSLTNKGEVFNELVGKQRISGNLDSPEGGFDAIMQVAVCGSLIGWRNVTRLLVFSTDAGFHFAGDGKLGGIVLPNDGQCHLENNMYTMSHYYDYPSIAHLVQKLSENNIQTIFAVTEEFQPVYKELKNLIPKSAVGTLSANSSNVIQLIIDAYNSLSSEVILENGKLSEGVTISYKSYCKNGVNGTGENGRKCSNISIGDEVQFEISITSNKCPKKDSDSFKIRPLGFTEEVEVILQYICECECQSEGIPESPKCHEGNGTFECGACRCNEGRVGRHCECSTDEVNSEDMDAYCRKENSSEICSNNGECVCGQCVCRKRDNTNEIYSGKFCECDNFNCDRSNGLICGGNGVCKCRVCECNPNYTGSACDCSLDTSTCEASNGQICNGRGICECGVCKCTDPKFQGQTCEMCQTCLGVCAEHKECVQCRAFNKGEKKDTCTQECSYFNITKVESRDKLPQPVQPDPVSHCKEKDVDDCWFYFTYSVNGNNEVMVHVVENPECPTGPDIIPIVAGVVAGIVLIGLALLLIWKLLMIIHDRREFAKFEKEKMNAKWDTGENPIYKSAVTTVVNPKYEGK
# Text: FIG. 19: Fluorescence microscopy of LECS stimulated by VEGF-C to express α9β1 on the extracellular membrane as stained by (from left to right, top) by (i) DAPI, a nuclear stain, (ii) IRDye800-[…] (SEQ ID NO: 2), the imaging conjugate that targets α9β1, and (iii) a fluorescently labeled antibody that targets the β1 portion of α9β1.
# This targeting approach can be used to detect the process of lymphangiogenesis in animal models in, for example, drug discovery programs focusing on cessation of tumor lymphangiogenesis (such is associated with cancer metastasis), or as a diagnostic to detect the lymphangiogenesis that occurs in metastatic cancer and other tymphovascular disorders. Lymphangiogenesis and the accompanying activation of LECS are known to be stimulated by vascular endothelial growth factor-C (VEGF-C) or hepatic growth factor (HGF). […] When VEGF-C is not present during incubation, α9β1 (over) expression and IRDye800-[…] […] The induced lymphangiogenesis is clearly visualized by the increase in fluorescence 24 hours through […] after the administration of imaging conjugate, IRDye800-[…] […] (SEQ ID NO: 2) was injected intravenously and 24 hours later, NIR fluorescence imaging was conducted to assess increased update associated with those tissues that were the site of Oxazolone application and increased lymphatic vessel densities that are indicative of lymphangiogenesis.
# [10] = tested on: lymphangiogenesis (α9β1); test: […] plug (with/without HGF) mouse model of lymphangiogenesis, NIR fluorescence imaging; assay type: in vivo; conditions: 24 hours after intradermal administration
# Protocol: FIG. 20: NIR fluorescent image of an animal model of lymphangiogenesis (top) with a […] plug impregnated with LEC stimulating factor HGF on the right with a control […] plug without HGF on the left. The animal image (top) is taken 24 hours after administration of IRDye800-[…] (SEQ ID NO: 2) showing agent uptake into the […] plug containing LEC stimulating factor HGF and little or no uptake into the […] plug without HGF. When the […] plugs were removed from the animal and imaged, they were then imaged for the presence of IRDye800-[…] (SEQ ID NO: 2).
# This targeting approach can be used to detect the process of lymphangiogenesis in animal models in, for example, drug discovery programs focusing on cessation of tumor lymphangiogenesis (such is associated with cancer metastasis), or as a diagnostic to detect the lymphangiogenesis that occurs in metastatic cancer and other tymphovascular disorders. […] The induced lymphangiogenesis is clearly visualized by the increase in fluorescence 24 hours through […] after the administration of imaging conjugate, IRDye800-[…] […] (SEQ ID NO: 2) was injected intravenously and 24 hours later, NIR fluorescence imaging was conducted to assess increased update associated with those tissues that were the site of Oxazolone application and increased lymphatic vessel densities that are indicative of lymphangiogenesis.
# [11] = molecular target: mouse serum albumin (Mus musculus, UniProt P07724); conditions: read-out: IC-50 of unconjugated ABD peptide for albumin; as reported by Dennis et al., 2002; cited from earlier work
# Chain of mouse serum albumin (Mus musculus, UniProt P07724) (P07724 25-608): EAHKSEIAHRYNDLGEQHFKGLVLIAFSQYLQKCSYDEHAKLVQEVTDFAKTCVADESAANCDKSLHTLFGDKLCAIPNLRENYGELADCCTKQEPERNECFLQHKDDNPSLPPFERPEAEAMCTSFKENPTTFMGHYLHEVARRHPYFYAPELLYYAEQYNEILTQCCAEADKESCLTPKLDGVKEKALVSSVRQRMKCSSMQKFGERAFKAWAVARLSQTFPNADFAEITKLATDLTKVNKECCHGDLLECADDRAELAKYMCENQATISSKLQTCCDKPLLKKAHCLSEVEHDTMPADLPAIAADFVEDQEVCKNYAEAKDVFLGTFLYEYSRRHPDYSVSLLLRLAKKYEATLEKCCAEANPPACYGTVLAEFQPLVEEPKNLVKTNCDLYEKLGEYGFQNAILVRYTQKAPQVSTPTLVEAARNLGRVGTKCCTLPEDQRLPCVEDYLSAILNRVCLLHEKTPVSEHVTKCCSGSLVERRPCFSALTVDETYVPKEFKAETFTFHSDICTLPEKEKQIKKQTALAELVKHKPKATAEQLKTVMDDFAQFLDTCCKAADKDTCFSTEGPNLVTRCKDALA
# [12] = molecular target: T2, mouse serum albumin (mouse, UniProt P07724 25-608); test: competitive binding assay on plates coated with mouse serum albumin; unlabeled ABD peptide at 0.05-10 nM mixed with labeled peptide, fluorescence read-out; mean and SD of four IC-50 values
# T2 construct: Bought protein; also called MSA
molecule,measurement,setting,value
"CC1(C)C(/C=C/C=C/C=C/C=C2\N(CCCCS(=O)(=O)O)c3ccc4ccccc4c3C2(C)C)=[N+](CCCCS(=O)(=O)[O-])c2ccc3ccccc3c21 [ICG, indocyanine green]",Quantum Yield (ICG standard),"[1]; ICG in water at 785/830 nm, used as standard",0.016
same,maximal absorption,[1]; background statement,780 nm
same,adverse events associated with the drug,[2],No adverse events
same,normal biological half-time,[3],2-4 min
same,adverse events associated with the imaging agent,[4],No adverse events
same,Emission maximum,[5],799
same,Excitation maximum,[5],785
same,Extinction Coefficient × 10^4,[5],8.60 +/− 0.35
same,Lifetime,[5],0.59 +/− 0.049
same,concentration sufficient to clearly depict lymphatic architecture in vivo,"[6]; 20 μL intradermal at base of tail, mice",500 µM
same,appearance of lymphatic vasculature,[6]; ICG at 500 μM,brighter and more prominent
same,appearance of lymphatic vessels and nodes,[6]; ICG at 20 and 100 uM,dim and difficult to discern
CC[C@H](C)[C@H](NC(=O)[C@H](CC(C)C)NC(=O)[C@H](CCCNC(=N)N)NC(=O)CCCCCN1C(=CC=C2CCCC(C=CC3=[N+](CCCCS(=O)(=O)[O-])c4ccc(S(=O)(=O)O)cc4C3(C)C)=C2Oc2ccc(S(=O)(=O)O)cc2)C(C)(C)c2cc(S(=O)(=O)O)ccc21)C(=O)N[C@@H](CCC(=O)O)C(=O)N[C@@H](CC(=O)O)C(=O)N[C@H](C(=O)N[C@H]1CSSC[C@@H](C(=O)N[C@@H](CC(C)C)C(=O)N[C@@H](Cc2c[nH]c3ccccc23)C(=O)N[C@@H](CCC(=O)O)C(=O)N[C@@H](CC(=O)O)C(=O)N[C@@H](CC(=O)O)C(=O)O)NC(=O)CNC(=O)[C@H](Cc2c[nH]c3ccccc23)NC(=O)[C@H](CCCNC(=N)N)NC(=O)[C@@H]2CCCN2C(=O)[C@H](CC(C)C)NC1=O)[C@@H](C)CC [IRDye800-ABD] (IRDye800CW-RLIEDICLPRWGCLWEDD-OH; disulfide 7-13; N-terminus and C-terminus assumed),Emission maximum,[5],803
same,Excitation maximum,[5],780
same,Intensity relative to ICG,[5]; (extinction coefficient × quantum yield) ratio to ICG,25.9
same,Quantum Yield,"[5]; at 785/830 (ex/em), comparative method with ICG as standard",0.0647 +/− 0.0007
same,Extinction Coefficient × 10^4,[5],54.836 +/− 0.25
same,Lifetime,[5],0.92 +/− 0.057
same,lymphatic clearance from inguinal lymph node,[7]; 0.5 to 50 min after injection,slowed clearance
same,"fluorescence intensity in inguinal node, initially",[7]; initial time after intradermal injection,started out with a lower intensity
IRDye800-GGGPLAEIDGIELTY: IRDye800 conjugated to tenascin C derived integrin α9β1 binding peptide GGGPLAEIDGIELTY (SEQ ID NO: 2),fluorescence in region of Oxazolone skin inflammation,[8],increased fluorescence
same,binding to LECs incubated in VEGF-C,"[9]; VEGF-C for 30 minutes, co-stain with antibody to β1",co-localized with the antibody to β1
same,binding to LECs without VEGF-C,[9]; VEGF-C not present during incubation,not seen
same,fluorescence of control MATRIGEL plug with no HGF,[10],did not show appreciable fluorescence
same,fluorescence of resected MATRIGEL plug with HGF,[10],showed fluorescence
RLIEDICLPRWGCLWEDD [ABD peptide],IC50,[11],5 nM
"RLIEDICLPRWGCLWEDD (cysteine pairing not given here; also: IRDye800CW label attached via NHS ester, site not given here, Made by adding a 1.75 times molar excess of IRDye800CW to the ABD peptide, then HPLC purified; also called IRDye800-ABD conjugate; ABD-IRDye800 conjugate) [IRDye800-ABD (albumin binding domain peptide RLIEDICLPRWGCLWEDD conjugated to IRDye800CW)]",IC50,[12],1.19 nM
